In patent US10385031B2, “Substituted piperazines as selective HDAC1,2 inhibitors” (Regenacy Pharmaceuticals, LLC, priority 2016, dated 2019):

How the values were obtained:
[1] = Rat pharmacokinetics, cassette dosing (IV and PO); type: in vivo; conditions: rat, plasma, male SD rats; for bioavailability: 5 mg/kg, oral AUC to IV AUC, dose adjusted; for IV clearance: IV 1 mg/kg; for AUC / Cmax / half-life: PO 5 mg/kg; for half-life: read-out: PO T½ (converted)
Protocol: Male SD rats were fasted overnight. Compounds of the invention were dissolved in dimethyl acetamide at 10 times the final concentration, then Solutol HS 15 (BASF) was added to a final concentration of 10%. Finally 80% saline was added and vortexed to achieve a clear solution. For the IV dosing three animals were injected via the foot dorsal vein with 1 mg/kg compound. For the PO dosing 5 mg/kg of compound was delivered by oral gavage. Blood was collected via the tail vein into K2EDTA tubes at 5 minutes, 15 minutes, 30 minutes, 1 hour, 2 hours, 4 hours, 8 hours and 24 hours after dosing. The blood was centrifuged at 2000 g for 5 minutes at 4° C. to obtain plasma. The plasma was extracted with acetonitrile and the level of compound was analyzed by LC/MS/MS. The level of compound in plasma was calculated from a standard curve in rat plasma. The IV clearance (L/h/kg) and area under the curve (h*ng/mL) were calculated using WinNonLin software. The dose adjusted area under the curve for the IV and oral dosing were used to calculate the oral bioavailability.
Pharmacokinetic properties were assessed in a rat cassette dosing experiment. The IV clearance (IV Clr.) is in units of L/hr/kg. The oral maximum plasma concentration (PO Cmax) is in units of ng/ml. The oral plasma half-life (PO T½) is in units of hours. The oral area under the curve (PO AUC) is in units of hours*ng/ml. The fraction absorbed by the oral route (F %) is a percentage of the oral area under the curve to the IV area under the curve, dose adjusted.

[2] = target: HDAC2 (Homo sapiens (Human), UniProt Q92769); assay: HDAC enzyme assay HDAC2; type: biochemical
Protocol: Compounds for testing were diluted in DMSO to 50 fold the final concentration and a ten-point three-fold dilution series was made. The compounds were diluted in assay buffer (50 mM HEPES, pH 7.4, 100 mM KCl, 0.001% Tween-20, 0.05% BSA, 20 μM TCEP) to 6-fold their final concentration. The HDAC enzymes (purchased from BPS Biosciences) were diluted to 1.5-fold their final concentration in assay buffer. The tripeptide substrate and trypsin at 0.05 μM final concentration were diluted in assay buffer at 6-fold their final concentration. The final enzyme concentrations used in these assays were 3.3 ng/ml (HDAC1), 0.2 ng/ml (HDAC2) and 0.08 ng/ml (HDAC3). The final substrate concentrations used were 16 μM (HDAC1), 10 μM (HDAC2) and 17 μM (HDAC3).
Five μl of compounds and 20 μl of enzyme were added to wells of a black, opaque 384 well plate in duplicate. Enzyme and compound were incubated together at room temperature for 10 minutes. Five μl of substrate was added to each well, the plate was shaken for 60 seconds and placed into a Victor 2 microtiter plate reader. The development of fluorescence was monitored for 60 min and the linear rate of the reaction was calculated. The IC50 was determined using Graph Pad Prism by a four parameter curve fit.

[3] = target: HDAC1 (Homo sapiens (Human), UniProt Q13547); assay: HDAC enzyme assay HDAC1; type: biochemical
[4] = target: HDAC3 (Homo sapiens (Human), UniProt O15379); assay: HDAC enzyme assay HDAC3; type: biochemical
Protocol: Compounds for testing were diluted in DMSO to 50 fold the final concentration and a ten-point three-fold dilution series was made. The compounds were diluted in assay buffer (50 mM HEPES, pH 7.4, 100 mM KCl, 0.001% Tween-20, 0.05% BSA, 20 μM TCEP) to 6-fold their final concentration. The HDAC enzymes (purchased from BPS Biosciences) were diluted to 1.5-fold their final concentration in assay buffer. The tripeptide substrate and trypsin at 0.05 μM final concentration were diluted in assay buffer at 6-fold their final concentration. The final enzyme concentrations used in these assays were 3.3 ng/ml (HDAC1), 0.2 ng/ml (HDAC2) and 0.08 ng/ml (HDAC3). The final substrate concentrations used were 16 μM (HDAC1), 10 μM (HDAC2) and 17 μM (HDAC3). Five μl of compounds and 20 μl of enzyme were added to wells of a black, opaque 384 well plate in duplicate. Enzyme and compound were incubated together at room temperature for 10 minutes. Five μl of substrate was added to each well, the plate was shaken for 60 seconds and placed into a Victor 2 microtiter plate reader. The development of fluorescence was monitored for 60 min and the linear rate of the reaction was calculated. The IC50 was determined using Graph Pad Prism by a four parameter curve fit. In Table 4 below, letter designations are defined as follows: […]

Chain of HDAC2 (Q92769 whole entry): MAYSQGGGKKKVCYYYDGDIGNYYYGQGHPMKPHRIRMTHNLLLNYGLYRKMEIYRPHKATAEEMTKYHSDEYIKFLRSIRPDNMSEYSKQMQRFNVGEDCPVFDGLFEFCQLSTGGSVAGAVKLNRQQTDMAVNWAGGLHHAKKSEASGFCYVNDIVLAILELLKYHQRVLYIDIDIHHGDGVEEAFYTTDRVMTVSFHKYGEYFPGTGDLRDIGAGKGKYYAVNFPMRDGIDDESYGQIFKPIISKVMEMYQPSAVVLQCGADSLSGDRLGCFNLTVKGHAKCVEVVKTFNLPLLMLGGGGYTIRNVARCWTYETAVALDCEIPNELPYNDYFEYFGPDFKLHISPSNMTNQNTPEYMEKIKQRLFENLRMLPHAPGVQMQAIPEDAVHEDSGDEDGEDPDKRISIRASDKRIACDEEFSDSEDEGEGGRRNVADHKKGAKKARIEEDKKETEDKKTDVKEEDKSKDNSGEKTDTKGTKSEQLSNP
Chain of HDAC3 (O15379 whole entry): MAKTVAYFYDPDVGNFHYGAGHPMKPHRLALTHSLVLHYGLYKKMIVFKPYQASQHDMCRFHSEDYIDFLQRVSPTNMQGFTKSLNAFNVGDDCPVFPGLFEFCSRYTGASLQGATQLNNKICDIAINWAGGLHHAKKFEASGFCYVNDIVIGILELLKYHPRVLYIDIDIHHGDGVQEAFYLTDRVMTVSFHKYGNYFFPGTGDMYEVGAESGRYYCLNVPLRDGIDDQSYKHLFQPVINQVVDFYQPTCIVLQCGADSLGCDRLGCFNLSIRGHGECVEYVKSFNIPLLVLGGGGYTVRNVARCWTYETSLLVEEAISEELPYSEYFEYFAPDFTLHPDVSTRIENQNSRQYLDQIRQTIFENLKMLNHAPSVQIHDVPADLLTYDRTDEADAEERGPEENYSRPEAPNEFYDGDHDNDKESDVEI
Chain of HDAC3 (Q9Y618 395-489 partner): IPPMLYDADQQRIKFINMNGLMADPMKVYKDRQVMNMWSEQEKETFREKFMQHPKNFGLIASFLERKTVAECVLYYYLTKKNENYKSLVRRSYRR
Chain of HDAC1 (Q13547 whole entry): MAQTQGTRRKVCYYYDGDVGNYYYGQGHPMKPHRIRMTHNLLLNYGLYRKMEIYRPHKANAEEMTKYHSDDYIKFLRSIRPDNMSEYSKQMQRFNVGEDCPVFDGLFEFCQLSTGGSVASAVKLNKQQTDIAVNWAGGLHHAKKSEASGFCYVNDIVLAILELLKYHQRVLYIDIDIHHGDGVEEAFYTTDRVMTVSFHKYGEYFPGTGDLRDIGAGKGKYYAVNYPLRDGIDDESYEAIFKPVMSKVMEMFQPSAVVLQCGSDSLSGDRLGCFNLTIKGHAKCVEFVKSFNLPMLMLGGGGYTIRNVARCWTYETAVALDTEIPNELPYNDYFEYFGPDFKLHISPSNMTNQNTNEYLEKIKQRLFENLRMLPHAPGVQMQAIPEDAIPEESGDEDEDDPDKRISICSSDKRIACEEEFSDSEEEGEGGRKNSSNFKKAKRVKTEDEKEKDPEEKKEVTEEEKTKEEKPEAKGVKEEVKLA

| bioavailability [1] [%] | IV clearance [1] [L/h/kg] | AUC [1] [µg·h/mL] | Cmax [1] [µg/mL] | half-life [1] [h] | IC50 [2] [µM] | IC50 [3] [µM] | IC50 [4] [µM] | Compound |
| --- | --- | --- | --- | --- | --- | --- | --- | --- |
| 86.1 | 0.12 | 34.6 | 3.75 | 5.9 | – | – | – | Nc1ccc(-c2ccccc2)cc1NC(=O)c1ccc2nc(N3CCNCC3)ccc2c1 [Compound 002] |
| 90.8 | 0.04 | 91.9 | 10.4 | 4.3 | – | – | – | Nc1ccc(-c2ccoc2)cc1NC(=O)c1ccc2nc(N3CCNCC3)ccc2c1 [Compound 004] |
| 100 | 0.86 | 5.54 | 0.536 | 5.6 | – | – | – | Nc1ccc(-c2ccco2)cc1NC(=O)c1ccc(N2CCNCC2)nc1 [Compound 008] |
| 12.6 | 1.1 | 0.57 | 0.164 | 4.7 | – | – | – | Nc1ccc(-c2ccncc2)cc1NC(=O)c1ccc(N2CCNCC2)nc1 [Compound 010] |
| 93.9 | 0.53 | 8.19 | 0.534 | 7.7 | – | – | – | Nc1ccc(-c2cccs2)cc1NC(=O)c1ccc(N2CCNCC2)cc1 [Compound 012] |
| 105 | 0.78 | 5.78 | 0.425 | 8.1 | – | – | – | Nc1ccc(-c2ccco2)cc1NC(=O)c1ccc(N2CCNCC2)cc1 [Compound 013] |
| 97 | 0.66 | 7.1 | 0.727 | 4.9 | – | – | – | Nc1ccc(-c2ccoc2)cc1NC(=O)c1ccc(N2CCNCC2)cc1 [Compound 014] |
| 51.2 | 0.36 | 6.37 | 0.664 | 8.5 | – | – | – | Nc1ccc(-c2cccs2)cc1NC(=O)c1cnc2cc(N3CCNCC3)ccc2c1 [Compound 023] |
| 36.3 | 0.21 | 8.22 | 1 | 4.4 | – | – | – | Nc1ccc(-c2ccco2)cc1NC(=O)c1cnc2cc(N3CCNCC3)ccc2c1 [Compound 024] |
| 191 | 0.65 | 10.7 | 0.614 | 13.7 | – | – | – | Nc1ccc(-c2cccs2)cc1NC(=O)c1ccc(N2CCNCC2)s1 [Compound 033] |
| – | – | – | – | – | 0.01 to 0.5 | < 0.01 | 0.01 to 0.5 | Nc1ccc(-c2ccco2)cc1NC(=O)c1cnc(N2CCNCC2)s1 [Compound 034] |
| – | – | – | – | – | 0.01 to 0.5 | < 0.01 | 0.01 to 0.5 | Nc1ccc(-c2ccc(F)cc2)cc1NC(=O)c1cnc(N2CCNCC2)s1 [Compound 037] |
| – | – | – | – | – | 0.01 to 0.5 | < 0.01 | 0.01 to 0.5 | Cc1nc(C(=O)Nc2cc(-c3ccco3)ccc2N)sc1N1CCNCC1 [Compound 042] |
| – | – | – | – | – | 0.01 to 0.5 | < 0.01 | > 0.5 | Cc1nc(C(=O)Nc2cc(-c3ccoc3)ccc2N)sc1N1CCNCC1 [Compound 043] |
| – | – | – | – | – | 0.01 to 0.5 | 0.01 to 0.5 | > 0.5 | Nc1ccc(-c2ccccn2)cc1NC(=O)c1cnc(N2CCNCC2)s1 [Compound 044] |
| – | – | – | – | – | 0.01 to 0.5 | 0.01 to 0.5 | 0.01 to 0.5 | Nc1ccc(-c2cccnc2)cc1NC(=O)c1cnc(N2CCNCC2)s1 [Compound 045] |
| – | – | – | – | – | 0.01 to 0.5 | < 0.01 | 0.01 to 0.5 | Nc1ccc(-c2ccoc2)cc1NC(=O)c1cnc(N2CCNCC2)s1 [Compound 046] |
| – | – | – | – | – | 0.01 to 0.5 | < 0.01 | > 0.5 | Nc1ccc(-c2ccccc2)cc1NC(=O)c1cnc(N2CCNCC2)s1 [Compound 047] |
| – | – | – | – | – | 0.01 to 0.5 | < 0.01 | > 0.5 | CN1CCN(c2ncc(C(=O)Nc3cc(-c4ccccc4)ccc3N)s2)CC1 [Compound 048] |

| bioavailability [1] [%] | IV clearance [1] [L/h/kg] | AUC [1] [µg·h/mL] | Cmax [1] [µg/mL] | half-life [1] [h] | IC50 [2] [µM] | IC50 [3] [µM] | IC50 [4] [µM] | Compound |
| --- | --- | --- | --- | --- | --- | --- | --- | --- |
| – | – | – | – | – | 0.01 to 0.5 | < 0.01 | 0.01 to 0.5 | Nc1ccc(-c2ccco2)cc1NC(=O)c1ncc(N2CCNCC2)s1 [Compound 050] |
| – | – | – | – | – | < 0.01 | < 0.01 | 0.01 to 0.5 | Nc1ccc(-c2ccoc2)cc1NC(=O)c1ncc(N2CCNCC2)s1 [Compound 051] |
| – | – | – | – | – | 0.01 to 0.5 | < 0.01 | 0.01 to 0.5 | Nc1ccc(-c2ccncc2)cc1NC(=O)c1ncc(N2CCNCC2)s1 [Compound 052] |
| – | – | – | – | – | < 0.01 | < 0.01 | 0.01 to 0.5 | Nc1ccc(-c2ccc(F)cc2)cc1NC(=O)c1ncc(N2CCNCC2)s1 [Compound 053] |
| – | – | – | – | – | 0.01 to 0.5 | < 0.01 | 0.01 to 0.5 | CN1CCN(c2cnc(C(=O)Nc3cc(-c4ccco4)ccc3N)s2)CC1 [Compound 054] |
| – | – | – | – | – | 0.01 to 0.5 | > 0.5 | > 0.5 | Nc1ccc(-c2ccco2)cc1NC(=O)c1nc(N2CCNCC2)cs1 [Compound 055] |
| – | – | – | – | – | 0.01 to 0.5 | 0.01 to 0.5 | > 0.5 | Nc1ccc(-c2ccoc2)cc1NC(=O)c1nc(N2CCNCC2)cs1 [Compound 056] |
| – | – | – | – | – | 0.01 to 0.5 | > 0.5 | > 0.5 | Nc1ccc(-c2ccncc2)cc1NC(=O)c1nc(N2CCNCC2)cs1 [Compound 057] |
| – | – | – | – | – | 0.01 to 0.5 | 0.01 to 0.5 | 0.01 to 0.5 | Nc1ccc(-c2ccc(F)cc2)cc1NC(=O)c1nc(N2CCNCC2)cs1 [Compound 058] |
| – | – | – | – | – | > 0.5 | > 0.5 | > 0.5 | Nc1ccc(-c2cccs2)cc1NC(=O)c1cnc(N2CCNCC2)o1 [Compound 060] |
| – | – | – | – | – | > 0.5 | > 0.5 | > 0.5 | Nc1ccc(-c2ccco2)cc1NC(=O)c1cnc(N2CCNCC2)o1 [Compound 061] |
| – | – | – | – | – | > 0.5 | > 0.5 | > 0.5 | Nc1ccc(-c2ccccc2)cc1NC(=O)c1cnc(N2CCNCC2)o1 [Compound 062] |
| – | – | – | – | – | > 0.5 | > 0.5 | > 0.5 | Nc1ccc(-c2ccc(F)cc2)cc1NC(=O)c1cnc(N2CCNCC2)o1 [Compound 063] |
| – | – | – | – | – | 0.01 to 0.5 | < 0.01 | 0.01 to 0.5 | Nc1ccc(-c2ccccc2)cc1NC(=O)c1ccc(N2CCNCC2)s1 [Compound 064] |
| – | – | – | – | – | 0.01 to 0.5 | < 0.01 | 0.01 to 0.5 | Nc1ccc(-c2ccco2)cc1NC(=O)c1ccc(N2CCNCC2)s1 [Compound 065] |
| – | – | – | – | – | 0.01 to 0.5 | < 0.01 | 0.01 to 0.5 | Nc1ccc(-c2ccoc2)cc1NC(=O)c1ccc(N2CCNCC2)s1 [Compound 066] |
| – | – | – | – | – | 0.01 to 0.5 | < 0.01 | 0.01 to 0.5 | Nc1ccc(-c2ccncc2)cc1NC(=O)c1ccc(N2CCNCC2)s1 [Compound 067] |
| – | – | – | – | – | 0.01 to 0.5 | – | 0.01 to 0.5 | CN1CCN(c2ccc(C(=O)Nc3cc(-c4cccs4)ccc3N)cn2)CC1 [Compound 071] |

| Compound | bioavailability [1] [%] | IV clearance [1] [L/h/kg] | AUC [1] [µg·h/mL] | Cmax [1] [µg/mL] | half-life [1] [h] | IC50 [2] [µM] | IC50 [3] [µM] | IC50 [4] [µM] |
| --- | --- | --- | --- | --- | --- | --- | --- | --- |
| Cc1nc(C(=O)Nc2cc(-c3cccs3)ccc2N)sc1N1CCNCC1 [Compound 041] | – | – | – | – | – | 0.01 to 0.5 | < 0.01 | 0.01 to 0.5 |
| Nc1ccc(-c2ccccc2)cc1NC(=O)c1ncc(N2CCNCC2)s1 [Compound 049] | – | – | – | – | – | 0.01 to 0.5 | – | 0.01 to 0.5 |
| Nc1ccc(-c2cccs2)cc1NC(=O)c1csc(N2CCNCC2)n1 [Compound 059] | – | – | – | – | – | 0.01 to 0.5 | > 0.5 | 0.01 to 0.5 |
